According to PMC5554537 (Frontiers in Pharmacology, 2017):

Experiments:
[1] = Stability in mouse liver homogenates (QC samples); format: physicochemical
From the text: using octa-deuterated internal standards of SN30000, M13 and M14 synthesised as previously reported (Wang et al., 2012). Intra- and inter-day precision (expressed as relative standard deviation (RSD) and accuracy (expressed as percentage of the nominal value) were deter mined by analy sis of replicates (n=6) of low and high quality control (QC) samples on three different days. The lower limit of quantitation (LLOQ) was defined as the lowest concentration providing RSD and accuracy < 20%. Recovery from plasma and liver ho mogenates was tested at the three QC levels. The recoveries were evaluated by comparing extracted samples with blank extracted solutions spiked with analytes of the same amount.
Matrix effects, defined as the change in response due to the presence of other substances in the samples, were evaluated by comparing the analytes diluted into the blank plasma or liver extracted solution with that of the same stock solutions diluted in water. Three different concentration levels (low, medium and high QC) were evaluated by analysing three samples at each level. Accuracy , precision, recovery and matrix effects were all acceptable over the concentration ranges evaluated for plas ma (Supplementary Table 1) and for liver homogenates (Supplementary Table 2).
Stability of the analytes in mouse plasma (Supplementary Table 3) or liver homogenate (Supplementary Table 4) was confirmed during holding of QC samples on ice for up to 2 h under nor mal laboratory lighting, although there was a trend towards loss of SN30000 in plasma samples held in clear microcentrifuge tubes which may reflect the known photosensitivity of the compound (Gu et al., 2014). This loss was reduced by use of red microcentrifuge tubes, and eliminated by black tubes. Stability in both matrices was also confir med for one month storage at -80°C and for three freeze-thaw cycles, while MeOH-deproteinised samples w ere stable for 12 h at 4°C in the autosampler (Supplementary Tables

in vivo [2] = conditions: NIH-III nude, mouse, iv
Description: SN30000, M14 and M18 dosing solutions were prepared fresh in normal saline, filtered through 0.45 μm Acrodisc filters (Pall Life Sciences, Port Washington, NY, United States), protected from light in amber vials, and used within 3 h. Doses are expressed as mg of free base equivalent for SN30000 and M14, and free acid in the case of M18. […] Blood samples were collected from mice at various times by cardiac puncture, seconds after cervical dislocation, into ice-cold tubes containing K2EDTA. These were placed on ice immediately after collection and centrifuged (3,000 g, 3 min) within 10 min to harvest plasma. Plasma and tissues were rapidly frozen in liquid nitrogen before storage at -80°C for subsequent bioanalysis.
M18 was quantified by absorbance detection with reference to an external standard calibration curve.
Concentration-time data were analyzed by non-compartmental analysis using Phoenix WinNonlin (ver 6.4, Build 6.4.0768 Pharsight, United States); all AUC values were extrapolated to infinity using the linear trapezoidal rule. […] Model fits were further assessed by visual inspection of the residuals and predicted PK.

in vivo [3] = conditions: NIH-III, mouse, ip, 186 mg/kg
in vivo [4] = conditions: NIH-III, mouse, ip
Description: SN30000, M14 and M18 dosing solutions were prepared fresh in normal saline, filtered through 0.45 μm Acrodisc filters (Pall Life Sciences, Port Washington, NY, United States), protected from light in amber vials, and used within 3 h. Doses are expressed as mg of free base equivalent for SN30000 and M14, and free acid in the case of M18. […] For evaluation of acute toxicity, mice were observed continuously for 3 h after dosing, and their activity rated on a lethargy score from 0 representing no change in activity to 5 representing animals that were moribund and required culling. For MTD studies, the animals were checked daily for clinical signs of toxicity and body weight change for 2 weeks. In some studies rectal temperature changes after dosing were measured using a BAT-12 digital microprobe thermometer (Physitemp Instruments, Clifton, NJ, United States) at the times specified in the figures. Blood samples were collected from mice at various times by cardiac puncture, seconds after cervical dislocation, into ice-cold tubes containing K2EDTA. These were placed on ice immediately after collection and centrifuged (3,000 g, 3 min) within 10 min to harvest plasma. Plasma and tissues were rapidly frozen in liquid nitrogen before storage at -80°C for subsequent bioanalysis.
Concentration-time data were analyzed by non-compartmental analysis using Phoenix WinNonlin (ver 6.4, Build 6.4.0768 Pharsight, United States); all AUC values were extrapolated to infinity using the linear trapezoidal rule. A compartmental model for plasma PK after dosing with SN30000 or M14 was fitted using Phoenix NLME v1.3 with random effects on the metabolite volumes of distribution, and temperature effects based on the observed body temperature at the last measurement time. Temperature effects were added or removed until there was no significant change in the log likelihood. Model fits were further assessed by visual inspection of the residuals and predicted PK.

[5] = target: T1, mouse brain acetylcholinesterase (Mus musculus, UniProt P21836); experiment: biochemical
T1 construct: from tissue; host or cells: mouse brain homogenate
T1 sequence (P21836 32-614): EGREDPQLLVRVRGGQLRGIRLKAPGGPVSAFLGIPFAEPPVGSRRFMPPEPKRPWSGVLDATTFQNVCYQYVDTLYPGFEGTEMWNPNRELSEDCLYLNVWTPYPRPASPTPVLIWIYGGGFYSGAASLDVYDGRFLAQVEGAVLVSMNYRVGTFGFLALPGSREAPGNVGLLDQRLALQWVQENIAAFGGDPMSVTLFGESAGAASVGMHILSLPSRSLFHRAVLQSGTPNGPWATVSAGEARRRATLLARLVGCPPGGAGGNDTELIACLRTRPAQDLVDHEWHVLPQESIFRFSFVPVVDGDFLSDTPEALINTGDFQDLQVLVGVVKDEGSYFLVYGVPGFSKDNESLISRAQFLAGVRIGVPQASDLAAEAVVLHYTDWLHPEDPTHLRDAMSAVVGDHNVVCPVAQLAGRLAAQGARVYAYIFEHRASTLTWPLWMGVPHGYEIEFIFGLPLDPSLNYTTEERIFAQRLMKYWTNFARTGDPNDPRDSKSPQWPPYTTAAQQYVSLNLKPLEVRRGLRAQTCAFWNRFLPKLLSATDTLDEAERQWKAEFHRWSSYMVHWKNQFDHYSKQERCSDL
Description: TABLE 10: Inhibition of mouse brain acetylcholinesterase activitya by SN30000 and related compounds […]
aThe acetylcholinesterase inhibition assay is based on Obregon et al., 2005. Mouse brain homogenate was prepared in potassium phosphate buffer (100 mM, pH 7.4), which was pre-incubated with dithiobisnitrobenzoate (final concentration 1 mM) at 37°C for 10 min. After adding acetylthiocholine (final concentration 0.6 mM), the formation of 5-thio-2-nitrobenzoate was measured by monitoring absorbance (Spectramax- M2 spectrophotometer) at 412 nm every 30 s for 10 min. Negative controls (DMSO or saline) and positive control […]
IC50 values are based on 3-4 deter minations per compound.

[6] = liver homogenate deproteinised in 3 vol MeOH, 12 h autosampler at 4°C, nominal SN30000 0.5, M14 0.25, M13 0.1 µM
[7] = liver homogenate deproteinised in 3 vol MeOH, 12 h autosampler at 4°C, nominal SN30000 5, M14 2.5, M13 1 µM
[8] = liver homogenate deproteinised in 3 vol MeOH, 12 h autosampler at 4°C, nominal SN30000 50, M14 25, M13 10 µM
[9] = liver homogenate, 1 month at -80°C, nominal SN30000 5, M14 2.5, M13 1 µM
[10] = liver homogenate, 1 month at -80°C, nominal SN30000 50, M14 25, M13 10 µM
[11] = liver homogenate, 1h on ice, clear tubes, nominal SN30000 0.5, M14 0.25, M13 0.1 µM
[12] = liver homogenate, 1h on ice, clear tubes, nominal SN30000 5, M14 2.5, M13 1 µM
[13] = liver homogenate, 1h on ice, clear tubes, nominal SN30000 50, M14 25, M13 10 µM
[14] = liver homogenate, 2h on ice, nominal SN30000 0.5, M14 0.25, M13 0.1 µM
[15] = liver homogenate, 2h on ice, nominal SN30000 5, M14 2.5, M13 1 µM
[16] = liver homogenate, 2h on ice, nominal SN30000 50, M14 25, M13 10 µM
[17] = liver homogenate, three freeze-thaw cycles, nominal SN30000 0.5, M14 0.25, M13 0.1 µM
[18] = liver homogenate, three freeze-thaw cycles, nominal SN30000 5, M14 2.5, M13 1 µM
[19] = liver homogenate, three freeze-thaw cycles, nominal SN30000 50, M14 25, M13 10 µM

`c1c2c(cc3nc(CCCN4CCOCC4)nnc13)CCC2` [M13] gave a Bias [1, 6] of 7.07%, a Measured conc [1, 6] of 0.11 µM and a Bias [1, 7] of 10.75%. It also gave a Measured conc [1, 7] of 1.11 µM, a Bias [1, 8] of 6.40% and a Measured conc [1, 8] of 10.64 µM. It also gave a Measured conc ([1]; liver homogenate, 1 month at -80°C, nominal SN30000 0.5, M14 0.25, M13 0.1 µM) of 0.11 µM, a Bias [1, 9] of 4.04% and a Measured conc [1, 9] of 1.03 µM. The Bias [1, 10] was 5.05%, the Measured conc [1, 10] was 9.12 µM and the Bias [1, 11] was 11.64%. For the same compound, the Measured conc [1, 11] was 0.11 µM, the Bias [1, 12] was 10.33% and the Measured conc [1, 12] was 1.10 µM. The Bias [1, 13] was 7.77%, the Measured conc [1, 13] was 10.78 µM and the Bias [1, 14] was 2.48%. The Measured conc [1, 14] was 0.10 µM, the Bias [1, 15] was 3.25% and the Measured conc [1, 15] was 1.03 µM. It also gave a Bias [1, 16] of 1.11%, a Measured conc [1, 16] of 10.11 µM and a Bias [1, 17] of -7.15%. It also gave a Measured conc [1, 17] of 0.093 µM, a Bias [1, 18] of -4.26% and a Measured conc [1, 18] of 0.96 µM. The Bias [1, 19] was 5.64%, the Measured conc [1, 19] was 10.56 µM and the AUC (in vivo [2]; plasma, 1.86 mg/kg) was 0.0047 µM·h. For the same compound, the half-life (in vivo [2]; plasma, 1.86 mg/kg) was 27.7 min, the AUC (in vivo [2]; plasma, 18.6 mg/kg) was 0.146 µM·h and the half-life (in vivo [2]; plasma, 18.6 mg/kg) was 47.1 min. It also gave an AUC (in vivo [2]; plasma, 78.3 mg/kg) of 3.34 µM·h, a half-life (in vivo [2]; plasma, 78.3 mg/kg) of 38.9 min and a half-life (in vivo [3]; HT29 tumour, Terminal T1/2, i.p. SN30000 186 mg/kg, tumour-bearing mice) of 126 min. The half-life (in vivo [3]; all tissues except tumors, Elimination half-life, i.p. SN30000 186 mg/kg) was about 30 min, the half-life (in vivo [3]; brain, Terminal T1/2, i.p. SN30000 186 mg/kg, non-tumour-bearing mice) was 34.9 min and the Tmax (in vivo [3]) was at most 5 min. It also gave a half-life (in vivo [3]; liver, Terminal T1/2, i.p. SN30000 186 mg/kg, HT29 tumour-bearing mice) of 52.4 min, a half-life (in vivo [3]; liver, Terminal T1/2, i.p. SN30000 186 mg/kg, non-tumour-bearing mice) of 42.1 min and a half-life (in vivo [3]; plasma, Terminal T1/2, i.p. SN30000 186 mg/kg, HT29 tumour-bearing mice) of 53.2 min. It also gave a half-life (in vivo [3]; plasma, Terminal T1/2, i.p. SN30000 186 mg/kg, non-tumour-bearing mice) of 42.4 min, an AUC (in vivo [4]; plasma, 1.86 mg/kg) of 0.0029 µM·h and a Cmax (in vivo [4]; plasma, 1.86 mg/kg) of 0.008 µM. It also gave a half-life (in vivo [4]; plasma, 1.86 mg/kg) of 19.8 min, an AUC (in vivo [4]; plasma, 18.6 mg/kg) of 0.079 µM·h and a Cmax (in vivo [4]; plasma, 18.6 mg/kg) of 0.202 µM. The half-life (in vivo [4]; plasma, 18.6 mg/kg) was 39.1 min, the AUC (in vivo [4]; plasma, 78.3 mg/kg) was 2.64 µM·h and the Cmax (in vivo [4]; plasma, 78.3 mg/kg) was 3.85 µM. It also gave a half-life (in vivo [4]; plasma, 78.3 mg/kg) of 31.8 min, an AUC (in vivo [4]; plasma, 92.8 mg/kg) of 5.43 µM·h and a Cmax (in vivo [4]; plasma, 92.8 mg/kg) of 6.63 µM. The half-life (in vivo [4]; plasma, 92.8 mg/kg) was 26.2 min, the AUC (in vivo [4]; plasma, 186 mg/kg) was 14.3 µM·h and the half-life (in vivo [4]; plasma, 186 mg/kg) was 53.3 min.
In the case of `O=C(O)CCc1nc2cc3c(cc2[n+]([O-])n1)CCC3` [M18], the “Inhibition at 300 μM” value ([5]; mouse brain acetylcholinesterase, 300 μM) is reported as “no inhibition”, the IC50 ([5]; mouse brain homogenate, 37°C) is reported as over 300 µM and the AUC (in vivo [2]; in vivo, 1.86 mg/kg) is reported as 0.77 µM·h. It also gave an AUC (in vivo [2]; in vivo, 18.6 mg/kg) of 10.1 µM·h, a half-life (in vivo [2]; in vivo, 18.6 mg/kg) of 101 min and an AUC (in vivo [2]; in vivo, 78.3 mg/kg) of 60.9 µM·h. For the same compound, the half-life (in vivo [2]; in vivo, 78.3 mg/kg) was 75 min, the Cmax (in vivo [3]; in vivo, i.p. SN30000 186 mg/kg, plasma, HT29 tumour-bearing mice) was 139 ± 6 µM and the Cmax (in vivo [3]; in vivo, i.p. SN30000 186 mg/kg, plasma, non-tumour-bearing mice) was 119 ± 3 µM. It also gave a half-life (in vivo [3]; in vivo, Terminal T1/2, i.p. SN30000 186 mg/kg, liver, HT29 tumour-bearing mice) of 392 min, a half-life (in vivo [3]; in vivo, Terminal T1/2, i.p. SN30000 186 mg/kg, liver, non-tumour-bearing mice) of 183 min and a half-life (in vivo [3]; in vivo, Terminal T1/2, i.p. SN30000 186 mg/kg, plasma, HT29 tumour-bearing mice) of 960 min. It also gave a half-life (in vivo [3]; in vivo, Terminal T1/2, i.p. SN30000 186 mg/kg, plasma, non-tumour-bearing mice) of 173 min, an AUC (in vivo [4]; in vivo, 1.86 mg/kg) of 1.06 µM·h and a Cmax (in vivo [4]; in vivo, 1.86 mg/kg) of 0.65 µM. The half-life (in vivo [4]; in vivo, 1.86 mg/kg) was 102 min, the AUC (in vivo [4]; in vivo, 18.6 mg/kg) was 10.8 µM·h and the Cmax (in vivo [4]; in vivo, 18.6 mg/kg) was 5.44 µM. The half-life (in vivo [4]; in vivo, 18.6 mg/kg) was 220 min, the AUC (in vivo [4]; in vivo, 78.3 mg/kg) was 51.5 µM·h and the Cmax (in vivo [4]; in vivo, 78.3 mg/kg) was 23.4 µM. For the same compound, the half-life (in vivo [4]; in vivo, 78.3 mg/kg) was 35.5 min, the AUC (in vivo [4]; in vivo, 92.8 mg/kg) was 116 µM·h and the Cmax (in vivo [4]; in vivo, 92.8 mg/kg) was 52.8 µM. The half-life (in vivo [4]; in vivo, 92.8 mg/kg) was 145 min, the AUC (in vivo [4]; in vivo, 186 mg/kg) was 204 µM·h and the Cmax (in vivo [4]; in vivo, 186 mg/kg) was 79.5 µM. It also gave a half-life (in vivo [4]; in vivo, 186 mg/kg) of 1210 min.
